In patent US12239654B2, “Compounds and methods for treating neurological and cardiovascular conditions” (Astrocyte Pharmaceuticals, Inc., priority 2016, dated 2025):

Target: T1, human A3 adenosine receptor (Homo sapiens, UniProt P0DMS8)
T1 construct: expressed in transfected cells; whole cells for cAMP
T1 sequence (P0DMS8 1-318): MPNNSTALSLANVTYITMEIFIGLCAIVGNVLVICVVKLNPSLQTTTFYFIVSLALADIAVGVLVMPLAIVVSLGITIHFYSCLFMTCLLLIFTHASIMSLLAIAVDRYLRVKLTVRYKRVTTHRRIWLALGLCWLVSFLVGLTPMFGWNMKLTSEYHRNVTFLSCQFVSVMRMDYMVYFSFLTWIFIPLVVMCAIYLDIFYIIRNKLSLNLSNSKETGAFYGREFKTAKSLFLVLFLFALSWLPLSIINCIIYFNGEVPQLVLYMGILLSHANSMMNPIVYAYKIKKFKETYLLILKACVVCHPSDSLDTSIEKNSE
Assay: cAMP accumulation at human A3 receptors expressed in CHO cells
Assay type: cell-based
Method: Additionally cAMP experiments were conducted at CHO cells recombinantly expressing human A3 or mouse A3 adenosine receptors, respectively.

CSc1nc(N)c2ncn([C@H]3[C@H](O)[C@H](O)[C@]4(CO)C[C@H]34)c2n1 [MRS4322]
EC50 (CHO cells stably expressing human A3R, read-out: EC50 ± SEM, Human A3R, cAMP accumulation): 3.63 ± 0.37 µM
Emax at 100 µM (read-out: efficacy at 100 μM concentration in % relative to maximal effect of NECA, Human A3R, 100 μM, cAMP accumulation, CHO cells): 70%
